According to patent US20210308120A1, “Use of Amitriptyline for Blocking Brain Hemichannels and Method for Potentiating its Effect in Vivo” (THERANEXUS, priority 2015, published 2021):

What was measured:
[1] = tested on: SN-CCI rats (neuropathic pain, hyperalgesia); test: Randall & Selitto test in SN-CCI rats, chronic 14-day administration; assay type: in vivo, rat; settings: amitriptyline 12 mg/kg s.c. osmotic pump; mefloquine 0.5 mg/kg i.p. twice a day; 14 days; vs saline
From the text: Data are the means±S.E.M. of n=8-14 rats.
Data are the means±S.E.M. of n=8-14 rats. *p<0.05, **p<0.01, ***p<0.001 as compared with “saline+saline” group at the same time, ≠p<0.05 as compared between amitriptyline groups, two-way ANOVA, Bonferroni test.
One week after their arrival, rats were anesthetized with sodium pentobarbital before exposing the common sciatic nerve. As described in Bennett's article, four chromic catgut (5-0) ligations were tied loosely proximally to the sciatic trifurcation (Bennett and Xie, 1988).
All behavioral assessments were conducted between 9 a.m. and 5 p.m. in a quiet room. An increasing pressure was applied to the right hind paw of SN-CCI (Sciatic Nerve-Chronic Constriction Injury) rat to evaluate hyperalgesia-like behavior (Viguier and al, 2013). Values correspond to the pressure threshold producing the paw withdrawal and then the vocalization of the rat.
(§1) Osmotic mini-pumps (Alzet, model 2ML2), delivering for the following 14 days amitriptyline or vehicle were subcutaneously implanted.
a) Rats were ligated on sciatic nerve and then tested with the Randall & Selitto test 14 days after surgery, to evaluate hyperalgesia quantified as pressure threshold. Neuropathic rats, characterized by a decrease of pressure threshold after surgery, were then treated during 14 days and tested by the Randall & Selitto test during this period.

[2] = tested on: mice subjected to FST; test: Forced Swim Test (FST); assay type: in vivo, mouse; settings: 2nd 3-min period
Method: The FST is the most used rodent model for screening antidepressants (Porsolt et al, 1977). Mice were dropped individually in a glass cylinder (25 cm high, 9 cm diameter) filled with 10 cm 25° C. water. The experiment was recorded with a camcorder, placed in front of the glass cylinders. Video were scored at a later time by an experimenter blind to the treatments. The indices of depression-related behavior are the immobility time, the swimming time and the climbing time.
FST test evaluates the despair behavior which is commonly reversed by antidepressants. During FST, the swimming time of each mouse was measured on each 1-min period, on 1st and 2nd 3-min periods.

[3] = tested on: REM sleep in mice; test: Quantification of sleep-wake episodes (REM sleep), EEG/EMG; assay type: in vivo, mouse; settings: amitriptyline 1 mg/kg i.p., combined or not with mefloquine 1 mg/kg i.p.; vs control
From the text: Mice were implanted with cortical and muscle electrodes to record the electroencephalogram (EEG) and electromyogram (EMG) and to monitor the sleep-wake cycle. This implantation allows stable and long-lasting polysomnographic recordings (Parmentier et al, 2002).
Polysomnographic records were visually scored by 10-s epochs for wakefulness (W), slow wave sleep (SWS), and paradoxical or rapid eye movement (REM) sleep.
Mice were registered by electroencephalogram to quantify sleep-wake episodes.

[4] = Pharmacokinetic of amitriptyline in brain and serum of SN-CCI rats; assay type: in vivo, rat; settings: amitriptyline 12 mg/kg osmotic pump ± mefloquine 0.5 mg/kg i.p. bidaily, 14 days
Method: Blood was collected and kept 1 hour at 4° C. Then serum and brain were collected. Amitriptyline was quantified by HPLC and mass spectrometry (Crepta laboratory).
as §1
After 14-day treatment, so 28 days after surgery, rats were sacrificed and brain as well as serum samples were collected to quantify amitriptyline.

[5] = tested on: neuropathic mice (cuff model, allodynia); test: Mechanical allodynia, von Frey test in sciatic nerve cuff model; assay type: in vivo, mouse
Method: Paw withdrawal thresholds of mice treated with either amitriptyline 6 mg/kg alone (AMIT 6) or amitriptyline 12 mg/kg alone (AMIT 12) are also shown (D). FIG. 10 (E) represents area under curve analysis.
Area under curve analysis are shown (B).
Neuropathic pain was induced to adult male C57BL/6J mice (Charles River, L'Arbresle, France) by cuffing the main branch of the right sciatic nerve (For detailed description and video illustration: Yalcin et al. 2014, J Vis Exp 89:e51608). Surgeries were performed under ketamine (68 mg/kg)/xylazine (10 mg/kg) intraperitoneal (i.p.) anesthesia (Centravet, Tadden, France). The common branch of the right sciatic nerve was exposed and a cuff of PE-20 polyethylene tubing (Harvard Apparatus, Les Ulis, France) of standardized length (2 mm) was unilaterally inserted around it (Cuff group). The shaved skin was closed using suture.
Injections were done once a day during the 17 first days of treatment, in the afternoon. As a single dose per day was ineffective, treatment was then done twice a day, morning and afternoon, from the 8 last days of treatment.
Mechanical allodynia was tested using von Frey hairs and results were expressed in grams (For detailed description and video illustration: Yalcin et al. 2014, J Vis Exp 89:e51608). Tests were done during the morning, starting at least 2 hours after lights on. Mice were placed in clear Plexiglas boxes (7 cm×9 cm×7 cm) on an elevated mesh screen. Calibrated von Frey filaments (Bioseb, Vitrolles, France) were applied to the plantar surface of each hindpaw until they just bent, in a series of ascending forces up to the mechanical threshold. Filaments were tested five times per paw and the paw withdrawal threshold was defined as the lower of two consecutive filaments for which three or more withdrawals out of the five trials were observed.
Mice were subjected to sciatic nerve cuffing and then tested with the von Frey test to evaluate allodynia quantified as pressure threshold.
Mice were subjected to sciatic nerve cuffing and then tested with the von Frey test to evaluate allodynia quantified as pressure threshold. Neuropathic mice, characterized by a decrease of pressure threshold after surgery, were then treated during 25 days and tested by the von Frey test during this period.

[6] = Pharmacokinetics of amitriptyline/mefloquine in plasma and brain of mice (LC-MS); assay type: in vivo, mouse; settings: amitriptyline 6, 12 mg/kg, mefloquine 0.1, 0.3, 1 mg/kg i.p., 18 days, 2 hours after injection
Method: Data are presented as mean±SEM.
Adult male C57BL/6J mice (Charles River, L'Arbresle, France) were used. Mice were kept in collective cages for habituation to the facility for one week before experimental testing with food and water ad libitum. Mice were maintained on a light/dark cycle of 12 hours with light onset at 8h00 and with a controlled temperature of 21° C.±1° C.
Injections were done twice.
On day 18th of treatment, mice received the morning injection and samplings were done 2 hours after the injection. Mice were anesthetized just before sampling (ketamine 68 mg/kg, xylazine 10 mg/kg) and blood was collected by intracardiac puncture (Vacuette tubes, with lithium/heparin gel). The mouse was then decapitated, and the brain extracted and fast frozen in dry ice.
Vacuette tubes with blood were centrifugated (3000 rpm, 20 min), plasma recovered and stored at −80° C. until shipping in dry ice.

CN(C)CCC=C1c2ccccc2CCc2ccccc21 [amitriptyline, 3-(5,6-dihydrodibenzo[2,1-b:2′,1′-f][7]annulen-11-ylidene)-N,N-dimethylpropan-1-amine]
Paw withdrawal threshold (pressure) [1]: significant increase of the paw withdrawal threshold at day 14
Vocalization threshold (pressure) [1]: increase of the vocalization threshold
Swimming time ([2]; amitriptyline 12 mg/kg per os alone): not significant
Swimming time ([2]; amitriptyline 24 mg/kg per os, single): significant increase of the swimming time
REM sleep duration [3]: did not induce significant reduction on its own
Amitriptyline concentration in brain, with vs without mefloquine [4]: No changes
Amitriptyline concentration in serum, with vs without mefloquine [4]: No changes
Amitriptyline ratio brain/plasma, with vs without mefloquine [4]: no significant difference
Paw withdrawal threshold (von Frey) ([5]; amitriptyline 6 mg/kg i.p. chronic, alone): no changes of paw withdrawal
Paw withdrawal threshold (von Frey) ([5]; amitriptyline 12 mg/kg i.p. chronic, in comparison with amitriptyline 6 mg/kg): significant increase of the paw withdrawal threshold from day 32 to day 34
Effective equivalent dose of amitriptyline when administered in combination with mefloquine ([5]; relative to active dose of amitriptyline alone): about 0.5
Concentrations in blood and brain tissue [6]: dose-dependent
